The test has as its system cancer cells. Description: Cytotoxicity assay of SeeloMab (PankoMab-ADC), statements for the cancer cells in general. The note with it: pretreated for 3 days vs non-pretreated. Type of test: cell-based, human.

This is an account of results in patent US20190343953A1, “ANTI-CANCER TREATMENTS WITH AN ANTI-MUC1 ANTIBODY AND AN ERBB INHIBITOR” (Glycotope GmbH, priority 2017, published 2019).

Experimental: The cytotoxic potential of a TA-MUC1 targeting antibody drug conjugate (ADC) was investigated using SeeloMab, the ADC format of PankoMab with a microtubule inhibitor as toxin. Therefore, cells were pre-incubated for 3 days with an optimum concentration of EGFR inhibitor. […] After 3 days the antigen expression was confirmed by flow cytometry and cells were seeded at equal cell density (5000 cells/well) into the wells of a microtiter plate. Cells were incubated with different concentrations of SeeloMab, an isotype matched control ADC and unconjugated PankoMab served as negative control. After 4 days viability of the cells was measured using Celltiter-Glo Luminescent Cell Viability Assay (Promega) and percent proliferation was calculated relative to medium control.

Regarding `C#Cc1cccc(Nc2ncnc3cc(OCCOC)c(OCCOC)cc23)c1` [Erlotinib], the “reduction of proliferation by anti-TA-MUC1 ADC when cancer cells were pretreated with EGFR inhibitor” value is reported as “significantly stronger”.
